Data from patent US20020111373A1, “Hydrochloride salt of a fused heterocyclic compound” (SANKYO COMPANY, LIMITED, priority 1999, published 2002).
Values after ≈ are worked out from the molar mass of the structure shown.

Tests used:
[1] = test system: spontaneously diabetic rats (ZDF/Gmi-fa/fa); experiment: Blood sugar lowering activity test in spontaneously diabetic rats; format: in vivo, rat; conditions: for Blood Sugar Level: male ZDF/Gmi-fa/fa rats, average of 6
Experimental: Male spontaneously diabetic rats (ZDF/Gmi-fa/fa) which were 8-10 weeks old were used.
The test compound was suspended in 0.5% CMC solution, and a dose of 0.33 mg/ml/kg was orally administered consecutively for 2 weeks under compulsion. The blood sugar level was measured in a conventional manner. Thus, the tail end (about 1 mm) of rat was cut, and the blood was collected with a hematocrit tube treated with heparin for anti-coagulation and centrifuged. The resultant plasma was measured with Glucoloader F (A&T).

[2] = Solubility experiment in 1st fluid of Japanese Pharmacopeia; format: physicochemical; conditions: 37° C.; for solubility at 1 h: pH 1.2, simulated gastric fluid, thermodynamic from solid, 40 mg in 200 ml 1st fluid of Japanese Pharmacopeia, HPLC, read-out: Solubility 1.0 hour later
Experimental: To 200 ml of the 1st fluid of Japanese Pharmacopeia (1000 ml solution made by mixing 2.0 g of sodium chloride with 7.0 ml of hydrochloric acid and water) were added 40 mg of Compound A or Compound B, and the mixture was stirred with a stirrer at 37° C. in a 300 ml conical beaker. One hour later, 10 ml of the sample were filtered through Acrodisk LC13 (PVDF, manufactured by German Science Co.). The initial 3 ml were discarded, and the following 7 ml were taken into a test tube. Of this sample, 5 ml were taken accurately with a whole pipette and added to 2 ml of methanol accurately measured in advance in a test tube.
The quantity was measured by HPLC and the solubility was decided from a calibration curve made according to the following procedure.
The calibration curve was made by preparing a methanolic standard solution of Compound A at a concentration of 400 μg/ml, 100 μg/ml and 20 μg/ml, mixing each 2 ml of the standard solution with 5 ml of the 1st fluid of Japanese Pharmacopeia and determined by HPLC.
Analytical column: L-column ODS (4.6 mm ID×15 cm, manufactured by Chemicals Evaluation Research Institute Japan)
Mobile phase: 0.01 mol/L acetic acid buffer solution (pH 5.0)/acetonitrile mixture (13:7)
Flow rate: about 1.0 ml/min.
Column temperature: 40° C.
Detector: ultraviolet absorptiometer (measuring wavelength: 290 nm)

[3] = 3 Days, 0.33 mg/ml/kg orally, consecutive dosing
[4] = 7 Days, 0.33 mg/ml/kg orally, consecutive dosing
[5] = 14 Days, 0.33 mg/ml/kg orally, consecutive dosing

| Compound | Blood Sugar Level ([1]; 0 Hour (baseline)) [mg/dL] | Blood Sugar Level [1, 3] [mg/dL] | Blood Sugar Level [1, 4] [mg/dL] | Blood Sugar Level [1, 5] [mg/dL] | hypoglycemic activity (comparison in words) ([1]; from Table 1, ZDF/Gmi-fa/fa rats, 0.33 mg/ml/kg orally for 2 weeks) | solubility (comparison in words) ([2]; from Table 2, 1st fluid of Japanese Pharmacopeia) | solubility at 1 h [2] [mg/mL] |
| --- | --- | --- | --- | --- | --- | --- | --- |
| COc1ccc2nc(COc3ccc(CC4SC(=O)NC4=O)cc3)n(C)c2c1.Cl (stereo not drawn) [Compound A, 5-[4-(6-methoxy-1-methyl-1H-benzimidazol-2-ylmethoxy)benzyl]thiazolidin-2,4-dione hydrochloride] | 456 | 228 | 206 | 207 | more excellent hypoglycemic activity than Compound B | markedly better solubility than Compound B | 0.0864 |
| COc1ccc2nc(COc3ccc(CC4SC(=O)NC4=O)cc3)n(C)c2c1 (stereo not drawn) [Compound B, 5-[4-(6-methoxy-1-methyl-1H-benzimidazol-2-ylmethoxy)benzyl]-thiazolidin-2,4-dione, reference compound] | 456 | 379 | 409 | 535 |  |  | 0.041 (≈ 103 µM) |
